Measured values: publication PMC6983056, “Carbazole Alkaloids from Clausena anisum-olens: Isolation, Characterization, and Anti-HIV Evaluation” (Molecules, 2019)
In brackets after ≈: the same amount, converted by molar mass.

Assays:
HIV-1 = test system: HIV-1; set-up: method as in PMID 16177980; details: cited from earlier work
[1] = test system: HIV replication in H9 lymphocytes; set-up: method as in PMID 31109016, PMID 10021911; details: cited from earlier work
[2] = test system: human immunodeficiency virus type-1 integrase; details: cited from earlier work
[3] = test system: HIV-1NL4-3 Nanoluc-sec virus; test: microbe, parasite or virus in culture; format: cell-based; details: for EC50: Human immunodeficiency virus 1, NL43, MT4, 72 h, read-out: EC50 (μg/mL) NL4-3; for selective anti-HIV activity (class symbol printed in EC50 column): CC50/EC50 criterion
Source text: MT4 cells (1 × 10^5 cells mL^−1) in 96 well plates were infected by HIV-1 NL4-3 Nanoluc-sec at a dose of 50 TCID50/well in the presence of each test compound at various concentrations. On Day 3 post-infection, supernatants were collected and assayed for luciferase activity using the Nano-Glo Luciferase Assay System (Promega, Madison, WI, USA). The antiviral potency was defined as the compound concentration that reduces the luciferase activity by 50% (EC50).

[4] = CytoTox-Glo cytotoxicity assay against MT4 cells; format: cell-based; details: human, 50% cytotoxic concentration, MT-4 cells, read-out: CC50 (μg/mL) MT4
Method: The cytotoxicity of the compound against MT4 cells was assessed using a CytoTox-Glo cytotoxicity assay (Promega, Madison, WI, USA). MT-4 cells were cultured in the presence of various concentrations of each test compound for 3 days, and the 50% cytotoxic concentration (CC50) causing a 50% reduction of cell viability was determined by following the manufacturer’s protocol.

[5] = test system: HIV replication in C8166 cells; set-up: method as in PMID 15771893; details: in vitro; cited from earlier work
HIV [6] = test system: HIV; set-up: method as in PMID 10757740; details: XTT-tetrazolium assay; cited from earlier work
HIV [7] = details: cited from earlier work

Q: Which results are given for `COc1ccc2c(c1)[nH]c1cc(OC)c(C=O)cc12` [3-formyl-2,7-dimethoxycarbazole]?
A: anti-HIV-1 effects EC50 (HIV-1): 7.4 µg/mL; potential therapeutic index (PTI) (HIV-1): 8.0

Q: With `COc1cc2c(c3cnccc13)c1ccccc1n2C` [5-methoxy-7-methyl-7H-pyrido[4,3-c]carbazole] as the molecule, how does the “therapeutic index (TI)” value ([1]; H9 lymphocytes) read?
A: Its value is 503.

Q: And the “EC50, inhibition of HIV replication in H9 lymphocytes” value [1]?
A: Its value is 0.0054 µg/mL.

Q: With `Cc1cc2c(c3c1[nH]c1cc(Cl)c(O)cc13)C(=O)N(CCN(C)C)C2=O` [8-Chloro-2-[2-(dimethylamino)ethyl]-9-hydroxy-5-methylpyrrolo[3,4-c]carbazole-1,3(2H,6H)-dione] as the molecule, how does the strand-transfer inhibitory activity [2] read?
A: The strand-transfer inhibitory activity was “potent strand-transfer inhibitory activity”.

Q: With `Cc1cn([C@H]2C[C@H](N=[N+]=[N-])[C@@H](CO)O2)c(=O)[nH]c1=O` [AZT, azidothymidine] as the molecule, how does the EC50 [3] read?
A: The EC50 was 0.0055 ± 0.0018 µg/mL (≈ 0.0206 µM).

Q: What about the CC50 at 3 days [4] of the same molecule?
A: The CC50 at 3 days was greater than 0.1 µg/mL.

Q: Which results are given for `COC(=O)c1cc2c(cc1C)[nH]c1ccccc12` [Compound 1, 2-methyl-9H-carbazole-3-methyl carboxylate]?
A: TI (CC50/EC50; SI in text) ([3]; CC50 MT4 / EC50 NL4-3): 7.1; EC50 [3]: 2.4 ± 0.53 µg/mL (≈ 10 µM); CC50 at 3 days [4]: 17 ± 2.5 µg/mL (≈ 71 µM)

Q: Which results are given for `COc1ccc(OC)c2c1[nH]c1cc(O)c(C)cc12` [Compound 2, 5,8-dimethoxy-3-methyl-9H-carbazol-2-ol]?
A: EC50 [3]: 3.7 µg/mL (≈ 14.4 µM); CC50 at 3 days [4]: 15.2 ± 3.1 µg/mL (≈ 59.1 µM)

Q: With `COc1ccc2c(c1)[nH]c1ccc(C(=O)O)cc12` [Compound 3, clausine N] as the molecule, how does the “selective anti-HIV activity (class symbol printed in EC50 column)” value [3] read?
A: Its value is “*- ^d (no selective anti-HIV activity (CC50/EC50 < 5))”.

Q: With `CC1(C)C=Cc2c(c(C=O)cc3c2[nH]c2c(O)cccc23)O1` [Compound 4, heptazolicine] as the molecule, how does the “selective anti-HIV activity (class symbol printed in EC50 column)” value [3] read?
A: Its value is “*- ^d (no selective anti-HIV activity (CC50/EC50 < 5))”.

Q: Which “selective anti-HIV activity (class symbol printed in EC50 column)” value [3] does the source give for `CC1(C)C=Cc2c(ccc3c2[nH]c2cc(O)c(C=O)cc23)O1` [Compound 5, clauszoline B] here?
A: The value was “*- ^d (no selective anti-HIV activity (CC50/EC50 < 5))”.

Q: For `O=Cc1ccc2[nH]c3cc(O)ccc3c2c1` [Compound 7, 7-dihydroxy-9H-carbazole-3-carboxaldehyde], which EC50 [3] is on record?
A: Its EC50 is greater than 25 µg/mL.

Q: What about the CC50 at 3 days [4] of the same molecule?
A: The CC50 at 3 days was greater than 25 µg/mL.

Q: For `COc1ccc2[nH]c3c(O)cc(C=O)cc3c2c1` [Compound 8, clausine I], which “selective anti-HIV activity (class symbol printed in EC50 column)” value [3] is on record?
A: The value was “*- ^d (no selective anti-HIV activity (CC50/EC50 < 5))”.

Q: Which results are given for `COc1cc2[nH]c3ccccc3c2cc1C=O` [O-methylmukonal]?
A: anti-HIV-1 effects EC50 (HIV-1): 2.7 µg/mL; potential therapeutic index (PTI) (HIV-1): 56.7

Q: For `COc1ccc2c(c1)[nH]c1cc(OC)c(C(=O)O)cc12` [clauszoline-J], which “anti-HIV-1 effects EC50” value (HIV-1) is on record?
A: The value was 8.2 µg/mL.

Q: What about the “potential therapeutic index (PTI)” value (HIV-1) of the same molecule?
A: The value was 1.6.

Q: Which “IC50, inhibition of HIV replication in C8166 cells” value [5] does the source give for `COc1ccc2[nH]c3cc(O)c(C)cc3c2c1CC=C(C)C` [glybomine B] here?
A: Its value is 9.73 µg/mL.

Q: For `Cc1cc2c(cc1O)[nH]c1ccc3c(c12)C=CC(C)(C)O3` [glycoborinine], which “IC50, inhibition of HIV replication in C8166 cells” value [5] is on record?
A: The value was 4.47 µg/mL.

Q: For `CC(C)=CCc1cc2c(cc1O)[nH]c1ccc(C)cc12` [siamenol], which “HIV-inhibitory activity EC50” value (HIV [6]) is on record?
A: Its value is 2.6 µg/mL.

Q: What about the maximum protection (HIV [6]) of the same molecule?
A: Its maximum protection is 50–60%.

Q: Which anti-HIV activity (HIV [7]) does the source give for `C[C@@]1(C(=O)O)[C@@H](O)CC[C@]2(C)c3cc4c(cc3CC[C@@H]12)[nH]c1ccccc14` [xiamycin] here?
A: The anti-HIV activity was “selective anti-HIV activity”.

Q: Which “selective anti-HIV activity (class symbol printed in EC50 column)” value [3] does the source give for clausine-O [Compound 6] here?
A: The value was “*- ^d (no selective anti-HIV activity (CC50/EC50 < 5))”.
